Laboratory results reported in patent US4261921A, “Process for preparation of a crystalline insecticidal pyrethroid enantiomer pair” (priority 1979, dated 1981).

What was measured:
[1] = U.S. Pat. No. 4,136,195; cited from earlier work
[2] = test system: pea aphid (Acyrthosiphon pisum); assay: Initial Contact (Foliar) Activity, pea aphid (PA); type: in vivo
Procedure: (§1) The compound of the invention was dissolved in a solution of 90% water, 9.75% acetone; and 0.25% octylphenoxypolyethoxyethanol to give a solution having 512 ppm (w/w) active ingredient. Aliquots of this solution were diluted with an appropriate amount of water to provide solutions containing various concentrations of active ingredient. Test organisms and techniques were as follows: The activity against Mexican bean beetle (Epilachna varivestis Muls.) and southern armyworm (Spodoptera eridania [Cram.]) was evaluated by spraying the leaves of pinto bean plants with the test solution and infesting with 3rd instar larvae after the foliage had dried. The activity against the pea aphid (Acyrthosiphon pisum [Harris]) was evaluated on broad bean plants whose leaves were sprayed before infestation with adult aphids. To prevent escape of the insects from the test site, the complete test plant or the incised leaves were placed in capped paper cups. The tests were transferred to a holding room for an exposure period of 48 hours. At the end of this time the dead and living insects were counted, the LD50 was calculated, and the potency relative to the commercial insecticide permethrin, 3-phenoxybenzyl (+) cis,trans-3-(2,2-dichloroethenyl)-2,2-dimethylcyclopropanecarboxylate determined.

[3] = test system: southern armyworm (Spodoptera eridania); assay: Topical Application Test, southern armyworm (SAW); type: in vivo; conditions: LD50 compared with permethrin = 1.0
Procedure: (§2) The compound of this invention was tested for insecticidal activity by applying to the insect appropriate amounts of a toxicant solution containing 5 mg/ml of toxicant in acetone. The tests were read twenty-four hours after application of the toxicant solution and the percent kill determined. The commercial insecticide permethrin, 3-phenoxybenzyl (+) cis-trans-3-(2,2-dichlorovinyl)-2,2-dimethylcyclopropanecarboxylate, was used as the standard for comparison. Relative potency, based on a value of 1.0 for permethrin, was determined by comparing the LD50 for the test compound with that for the standard. The insects employed include southern armyworm (Spodoptera eridania [Cram.]), cabbage looper (Trichoplusia ni [Hubner]), Mexican bean beetle (Epilachna varivestis Muls.), beet armyworm (Spodoptera exigua [Hubner]), milkweed bug (Oncopeltus faciatus [Dallas]), tobacco budworm (Heliothis virescens [Fabricius]), and corn earworm (Heliothis zea [Boddle]).

insects = assay: Topical Application Test, all insects, comparison with permethrin in words; type: in vivo; conditions: topical tests, 24 h
Procedure: as §2

[4] = test system: milkweed bug (Oncopeltus fasciatus); assay: Topical Application Test, milkweed bug (MWB); type: in vivo
Procedure: as §2

[5] = test system: Mexican bean beetle (Epilachna varivestis); assay: Topical Application Test, Mexican bean beetle (MBB); type: in vivo
Procedure: as §2

[6] = test system: cabbage looper (Trichoplusia ni); assay: Topical Application Test, cabbage looper (CL); type: in vivo
Procedure: as §2

[7] = test system: corn earworm (Heliothis zea); assay: Topical Application Test, corn earworm (CEW); type: in vivo
Procedure: as §2

[8] = test system: southern armyworm (Spodoptera eridania); assay: Initial Contact (Foliar) Activity, southern armyworm (SAW); type: in vivo
Procedure: as §1

[9] = test system: beet armyworm (Spodoptera exigua); assay: Topical Application Test, beet armyworm (BAW); type: in vivo
Procedure: as §2

[10] = test system: tobacco budworm (Heliothis virescens); assay: Topical Application Test, tobacco budworm (TBW); type: in vivo; conditions: LD50 compared with permethrin = 1.0
Procedure: as §2

[11] = test system: Mexican bean beetle (Epilachna varivestis); assay: Initial Contact (Foliar) Activity, Mexican bean beetle (MBB); type: in vivo
Procedure: as §1

[12] = LD50 compared with permethrin = 1.0

Compound | activity among the disclosed diastereomers [1] | LC50 ([2]; pea aphid adults, broad bean, 48 h exposure) | Relative Potency ([2]; pea aphid, 48 h, relative to permethrin) | Relative Potency [3] | insecticidal activity compared with permethrin (insects) | Relative Potency [4, 12] | LD50 ([4]; read 24 h after application) | Relative Potency [5, 12] | LD50 ([5]; read 24 h after application) | Relative Potency [6, 12] | LD50 ([6]; read 24 h after application) | Relative Potency [7, 12] | LD50 ([7]; read 24 h after application) | LC50 ([8]; southern armyworm 3rd instar larvae, pinto bean, 48 h exposure) | Relative Potency ([8]; southern armyworm, 48 h, relative to permethrin) | Relative Potency [9, 12] | LD50 ([9]; read 24 h after application) | Relative Potency [10] | LC50 ([11]; Mexican bean beetle 3rd instar larvae, pinto bean, 48 h exposure) | Relative Potency ([11]; Mexican bean beetle, 48 h, relative to permethrin)
CC1(C)[C@H](C(=O)O[C@H](C#N)c2cccc(Oc3ccccc3)c2)[C@@H]1C=C(Cl)Cl [1R,cis-α-S isomer, (S)-(cyano)(3-phenoxyphenyl)methyl (1R,cis)-3-(2,2-dichloroethenyl)-2,2-dimethylcyclopropanecarboxylate] | the more active of the disclosed diastereomers | – | – | – | – | – | – | – | – | – | – | – | – | – | – | – | – | – | – | –
CC1(C)[C@H](C(=O)O[C@H](C#N)c2cccc(Oc3ccccc3)c2)[C@@H]1C=C(Cl)Cl (relative stereo) [compound of the invention, racemic mixture of (S)-(cyano)(3-phenoxyphenyl)methyl (1R,cis)-3-(2,2-dichloroethenyl)-2,2-dimethylcyclopropanecarboxylate and (R)-(cyano)(3-phenoxyphenyl)methyl (1S,cis)-3-(2,2-dichloroethenyl)-2,2-dimethylcyclopropanecarboxylate] | – | 1.39-21.15 parts per million | 2.5-9.8 | 1.0-1.5 | substantially more active than permethrin | 37.6 | 16.4 ng/insect | 7.2 | 2.03 ng/insect | 9.0 | 14.9 ng/insect | 2.5 | 110.9 ng/insect | .22-.38 parts per million | 9.8-16.1 | 5.1 | 218.8 ng/insect | 4.2-6.1 | 1.62-1.86 parts per million | 5.3-8.8
